This note sets out measurements from PubChem BioAssay (NCI).

Values joined by “and” are separate entries in the source; they are usually repeats but may differ in a detail not shown here. Equal values may be shown once.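 These data come from cells grown in 96-well plates and exposed to compound for 48 hours at five concentrations. Here, GI50 denotes the concentration required for 50% inhibition of growth. TGI denotes the concentration required for complete inhibition of growth.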

What all share (assay): NCI-60 cell line screen, 48 h
In assay [1] the test system is SNB-75 CNS.
The test system of assay [2] is EKVX NSCLC.
For assay [3], the system named is BT-549 breast.
Assay [4] concerns ACHN renal.
Assay [5] relates to DU-145 prostate.
The subject of assay [6] is CAKI-1 renal.
In assay [7] the test system is A498 renal.
Assay [8] deals with LOX IMVI melanoma.

`Cn1cnc([N+](=O)[O-])c1[Se]c1nc(N)nc2c1ncn2C1OC(CO)C(O)C1O` (stereo unspecified): the TGI in assay [1], in assay [2], in assay [3], in assay [4], in assay [5] and in assay [6] was more than 100000 nM throughout. Also, the TGI in assay [7] and in assay [8] was more than 100000 nM throughout.
Take `CC(C)CCCC(=O)CCCCCCC(=O)CCN(O)C(=O)C(N)CO` (stereo unspecified): the TGI in assay [1] is 31100 nM; in assay [2] it was 27500 nM; in assay [3], 34500 nM; in assay [4], 34900 nM; in assay [5], 37400 nM; in assay [6], 39400 nM. The TGI in assay [7] worked out at 31800 nM; in assay [8], 30900 nM.
`C=C[C@H]1C[C@@H]2C[C@@H]3[C@H]4C/C=C\C(=O)NCCCC5NC(=O)C(=C(O)/C=C/[C@@H]4CC(=O)[C@H]3[C@@H]2[C@H]1C)C5=O` (stereo partly specified): the GI50 in assay [1] is 150 nM; in assay [2] it was 1130 nM; in assay [3], 158 nM; in assay [4] it was 180 nM; in assay [5] it was 191 nM; in assay [6] it was 191 nM. The GI50 is 175 nM in assay [7] and 187 nM in assay [8]. In addition, the TGI in assay [1] turned out to be 289 nM; in assay [2], 2540 nM; in assay [3], 322 nM; in assay [4], 343 nM; in assay [5], 345 nM; in assay [6] it was 374 nM. For the same compound, the TGI in assay [7] is 369 nM; in assay [8] it was 368 nM.
In the case of `COc1cc2c3c(n(CCCCOC(=O)C(Cl)(Cl)Cl)c(=O)c2cc1OC)-c1cc2c(cc1C3=O)OCO2`, the GI50 was more than 100000 nM in assay [1]; more than 100000 nM in assay [2]; 57100 nM in assay [3]; 14200 nM in assay [4]; 20400 nM in assay [5]; 4610 nM in assay [6]. For the same compound, the GI50 in assay [7] is more than 100000 nM; in assay [8], 35900 nM. The TGI in assay [1] is more than 100000 nM; in assay [2] it was more than 100000 nM; in assay [3], more than 100000 nM; in assay [4], 59500 nM; in assay [5] it was more than 100000 nM; in assay [6] it was more than 100000 nM. Besides, the TGI in assay [7] and in assay [8] was more than 100000 nM in each case.
`NCCCn1c2c(c3ccc([N+](=O)[O-])cc3c1=O)C(=O)c1cc(Br)ccc1-2`: the GI50 is 2.81 nM in assay [1]; 75.7 nM and 50.1 nM in assay [2]; 31.4 nM and 49.1 nM in assay [3]; 18.7 nM in assay [4]; 2.05 nM in assay [5]; 219 nM in assay [6]. The GI50 was 2.31 nM in assay [7] and 6.83 nM in assay [8]. The TGI is 29.8 nM in assay [1]; 223 nM in assay [2]; 893 nM in assay [3]; 47.7 nM in assay [4]; 8.73 nM and 12.1 nM in assay [5]; 623 nM in assay [6]. In addition, the TGI is 62.8 nM in assay [7]; 109 nM and 22.7 nM in assay [8].
For `CC(C)(C)c1ccc(O)c(CN(Cc2cc(C(C)(C)C)ccc2O)c2ccccc2)c1`, the TGI in assay [1] is 52400 nM; in assay [2] it was 37100 nM; in assay [3], 36400 nM; in assay [4], 35500 nM; in assay [5], 38300 nM; in assay [6], more than 100000 nM. In addition, the TGI in assay [7] stood at 28100 nM; in assay [8], 26800 nM.
With `CCc1oc2ccccc2c1C(=O)c1cc(I)c(O)c(I)c1`, the GI50 in assay [1] is 1540 nM; in assay [2] it was 3590 nM; in assay [3], 2790 nM; in assay [4], 4870 nM; in assay [5] it was 2370 nM; in assay [6], 2300 nM. The GI50 in assay [7] is 3840 nM; in assay [8], 3510 nM. Further, the TGI came to 6430 nM in assay [1]; 15400 nM in assay [2]; 13900 nM in assay [3]; 18200 nM in assay [4]; 7400 nM in assay [5]; 10800 nM in assay [6]. In addition, the TGI in assay [7] was found to be 17000 nM; in assay [8], 17100 nM.
For the compound `Cc1ccc(NC(=O)c2sc3nc(C)c(C(O)c4ccccc4)cc3c2N)cc1` (stereo unspecified), the GI50 in assay [1] is 245 nM; in assay [2], 733 nM; in assay [3], 1150 nM; in assay [4], 658 nM; in assay [5], 391 nM; in assay [6], 450 nM. The GI50 was 233 nM in assay [7] and 629 nM in assay [8]. Also, the TGI is 13600 nM in assay [1]; more than 100000 nM in assay [2]; 33700 nM in assay [3]; 20200 nM in assay [4]; 16800 nM in assay [5]; 25900 nM in assay [6]. For the same compound, the figures for the TGI in assay [7] and in assay [8] were 1040 nM and 19000 nM, respectively.
Turning to `COc1cc2c3c(n(CCNCCCNCCn4c5c(c6cc(OC)c(OC)cc6c4=O)C(=O)c4ccccc4-5)c(=O)c2cc1OC)-c1ccccc1C3=O`, the GI50 in assay [1] was 1600 nM; in assay [2], 5890 nM; in assay [3] it was 2870 nM; in assay [4], 693 nM; in assay [5], 197 nM; in assay [6], more than 100000 nM. The GI50 in assay [7] was 3120 nM; in assay [8], 29.3 nM. Also, the TGI in assay [1] is 6810 nM; in assay [2], 47200 nM; in assay [3], more than 100000 nM; in assay [4], more than 56300 nM; in assay [5] it was 30800 nM; in assay [6], more than 100000 nM. The TGI stood at 14500 nM in assay [7] and 413 nM in assay [8].
With `COC(=O)[C@H](Cc1c[nH]c2ccccc12)NC(=O)[C@@H](OC)[C@@H]1Cc2cc3cc(OC4CC(OC5CC(O)C(O)C(C)O5)C(O)C(C)O4)c(C)c(O)c3c(O)c2C(=O)[C@H]1OC1CC(OC2CC(OC3CC(C)(O)C(O)C(C)O3)C(O)C(C)O2)C(O)C(C)O1` (stereo partly specified), the GI50 in assay [1] is 4.65 nM; in assay [2] it was 12.5 nM; in assay [3] it was 5.27 nM; in assay [4], 47.5 nM; in assay [5] it was 7.13 nM; in assay [6], 345 nM. Moreover, the results for the GI50 in assay [7] and in assay [8] were 5.17 nM and 3.91 nM, respectively. Also, the TGI is 24.4 nM in assay [1]; 3000 nM in assay [2]; 31 nM in assay [3]; 907 nM in assay [4]; more than 16500 nM in assay [5]; more than 16500 nM in assay [6]. The results for the TGI in assay [7] and in assay [8] were 24.9 nM and 11.1 nM, respectively.
